Reference: patent publication US20060069132A1, “Azolecarboxamide herbicides” (priority 2004, published 2006)
Like-named read-outs stand apart in the source and are kept apart here.

Experiments:
[1] = system: giant foxtail; experiment: Test A pre-/postemergence herbicide test; assay type: in vivo, Setaria faberi; settings: Setaria faberi, 240 h; for pest or weed control at 500 g/ha: 500 g ai/ha; for pest or weed control at 2000 g/ha: 2000 g ai/ha
In short: (§1)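 Plants are held in greenhouse about ten days after treatment, then compared with untreated controls and scored 0 (no effect) to 100 (complete control). Preemergence dosing is a directed soil spray on sown sandy loam; postemergence dosing is spray to runoff at 2–10 cm height.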

[2] = system: corn; experiment: Test C pre-/postemergence herbicide test; assay type: in vivo, Zea mays
In short: (§2)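 Greenhouse-grown plants were evaluated visually 12 to 14 days after treatment, with 100 meaning complete control and 0 no effect. Application was preemergence, or postemergence at 2 to 18 cm.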

[3] = system: large crabgrass; experiment: Test C pre-/postemergence herbicide test; assay type: in vivo, Digitaria sanguinalis
In short: as §2

[4] = system: kochia; experiment: Test C pre-/postemergence herbicide test; assay type: in vivo, Kochia scoparia
In short: as §2

[5] = system: johnsongrass; experiment: Test C pre-/postemergence herbicide test; assay type: in vivo, Sorghum halepense
In short: as §2

[6] = system: ducksalad; experiment: Test C flooded paddy test; assay type: in vivo, Heteranthera limosa; settings: Heteranthera limosa
[7] = system: lambsquarters; experiment: Test C pre-/postemergence herbicide test; assay type: in vivo, Chenopodium album
In short: as §2

[8] = system: woolly cupgrass; experiment: Test C pre-/postemergence herbicide test; assay type: in vivo, Eriochloa villosa
In short: as §2

[9] = system: velvetleaf; experiment: Test A pre-/postemergence herbicide test; assay type: in vivo, Abutilon theophrasti; settings: Abutilon theophrasti, 240 h; for pest or weed control at 500 g/ha: 500 g ai/ha; for pest or weed control at 2000 g/ha: 2000 g ai/ha
In short: as §1

[10] = system: rice; experiment: Test C flooded paddy test; assay type: in vivo, Oryza sativa; settings: Oryza sativa
In short: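 Injury scored visually against controls on a 0 (no effect) to 100 (complete control) scale, 12 to 14 days after treatment in greenhouse. Flooded paddy plants treated at 2-leaf stage; postemergence plants at 1- to 4-leaf stage, 2 to 18 cm tall.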

[11] = system: large crabgrass; experiment: Test A pre-/postemergence herbicide test; assay type: in vivo, Digitaria sanguinalis; settings: Digitaria sanguinalis, 240 h; for pest or weed control at 500 g/ha: 500 g ai/ha; for pest or weed control at 2000 g/ha: 2000 g ai/ha
In short: as §1

[12] = system: barnyardgrass; experiment: Test A pre-/postemergence herbicide test; assay type: in vivo, Echinochloa crus-galli; settings: Echinochloa crus-galli, 240 h; for pest or weed control at 500 g/ha: 500 g ai/ha; for pest or weed control at 2000 g/ha: 2000 g ai/ha
In short: as §1

[13] = post-emergence, Postemergence, 0 to 100 scale, 0 no effect, 100 complete control, read-out: Plant response rating, Foxtail, Giant
[14] = Preemergence, 500 g ai/ha, scale 0 to 100, 0 no effect, 100 complete control
[15] = post-emergence, Postemergence, 0 to 100 scale, 0 no effect, 100 complete control, read-out: Plant response rating, Velvetleaf
[16] = post-emergence, Postemergence, 0 to 100 scale, 0 no effect, 100 complete control, read-out: Plant response rating, Crabgrass, Large
[17] = post-emergence, Postemergence, 0 to 100 scale, 0 no effect, 100 complete control, read-out: Plant response rating, Barnyardgrass

## CCn1nc(C(C)(C)C)cc1C(=O)Nc1cc(C(=O)N(C)C)ccc1F [Compound 6, N-[5-[(dimethylamino)carbonyl]-2-fluorophenyl]-3-(1,1-dimethylethyl)-1-ethyl-1H-pyrazole-5-carboxamide]
[1]; [13]
  pest or weed control at 500 g/ha: 70%
  pest or weed control at 2000 g/ha: 70%
[1]; pre-emergence, Preemergence, visual rating, 0 to 100 scale (0 no effect, 100 complete control), read-out: Foxtail, Giant plant response rating
  pest or weed control at 500 g/ha: 100%
[1]; pre-emergence, Preemergence, 0 to 100 scale, 0 no effect, 100 complete control, read-out: Foxtail, Giant plant response rating
  pest or weed control at 2000 g/ha: 100%
[2]; 62 g ai/ha, preemergence
  Plant response rating (0 = no effect, 100 = complete control), Corn: 60
[2]; [14]
  Corn plant response rating: 80
[2]; Zea mays, pre-emergence, 312 h, 125 g ai/ha, scale 0-100
  Corn plant response rating (crop injury, 0 = no effect, 100 = complete kill) at 125 g/ha: 60%
[2]; Zea mays, pre-emergence, 312 h, 250 g ai/ha, scale 0 to 100 (0 no effect, 100 complete control), visual, 12 to 14 days
  Corn plant response rating (crop injury, 0 = no effect, 100 = complete kill) at 250 g/ha: 80%
[3]; 62 g ai/ha, preemergence
  Plant response rating (0 = no effect, 100 = complete control), Crabgrass, Large: 75
[3]; Digitaria sanguinalis, pre-emergence, 312 h, 125 g ai/ha, scale 0-100, read-out: Plant response rating, Crabgrass, Large
  pest or weed control at 125 g/ha: 95%
[3]; Digitaria sanguinalis, pre-emergence, 312 h, 250 g ai/ha, scale 0 to 100 (0 no effect, 100 complete control), visual, 12 to 14 days, read-out: Plant response rating, Crabgrass, Large
  pest or weed control at 250 g/ha: 95%
[3]; [14]
  Crabgrass, Large plant response rating: 100
[4]; 62 g ai/ha, preemergence
  Plant response rating (0 = no effect, 100 = complete control), Kochia: 100
[4]; Bassia scoparia, pre-emergence, 125 g ai/ha, scale 0-100, read-out: Plant response rating, Kochia
  pest or weed control at 125 g/ha: 100%
[4]; Bassia scoparia, pre-emergence, 250 g ai/ha, scale 0 to 100 (0 no effect, 100 complete control), visual, 12 to 14 days, read-out: Plant response rating, Kochia
  pest or weed control at 250 g/ha: 100%
[4]; [14]
  Kochia plant response rating: 100
[5]; 62 g ai/ha, preemergence
  Plant response rating (0 = no effect, 100 = complete control), Johnsongrass: 70
[5]; [14]
  Johnsongrass plant response rating: 100
[5]; Sorghum halepense, pre-emergence, 125 g ai/ha, scale 0-100, read-out: Plant response rating, Johnsongrass
  pest or weed control at 125 g/ha: 90%
[5]; Sorghum halepense, pre-emergence, 250 g ai/ha, scale 0 to 100 (0 no effect, 100 complete control), visual, 12 to 14 days, read-out: Plant response rating, Johnsongrass
  pest or weed control at 250 g/ha: 90%
[6]; 62 g ai/ha, scale 0 to 100 (0 no effect, 100 complete control), read-out: Ducksalad plant response rating
  pest or weed control at 62 g/ha: 80%
[6]; 125 g ai/ha, scale of 0 to 100, 0 is no effect, 100 is complete control, read-out: Ducksalad plant response rating
  pest or weed control at 125 g/ha: 90%
[6]; 250 g ai/ha, visual rating after 12 to 14 days, scale 0 to 100 (0 no effect, 100 complete control), read-out: Plant response rating, Ducksalad
  pest or weed control at 250 g/ha: 90%
[6]; 500 g ai/ha, visual rating after 12 to 14 days, scale 0 to 100 (0 no effect, 100 complete control), read-out: Plant response rating, Ducksalad
  pest or weed control at 500 g/ha: 100%
[7]; 62 g ai/ha, preemergence
  Plant response rating (0 = no effect, 100 = complete control), Lambsquarters: 100
[7]; Chenopodium album, pre-emergence, 125 g ai/ha, scale 0-100, read-out: Plant response rating, Lambsquarters
  pest or weed control at 125 g/ha: 100%
[7]; Chenopodium album, pre-emergence, 250 g ai/ha, scale 0 to 100 (0 no effect, 100 complete control), visual, 12 to 14 days, read-out: Plant response rating, Lambsquarters
  pest or weed control at 250 g/ha: 100%
[7]; [14]
  Lambsquarters plant response rating: 100
[8]; 62 g ai/ha, preemergence
  Plant response rating (0 = no effect, 100 = complete control), Cupgrass, Woolly: 50
[8]; Eriochloa villosa, pre-emergence, 312 h, 125 g ai/ha, scale 0-100, read-out: Plant response rating, Cupgrass, Woolly
  pest or weed control at 125 g/ha: 55%
[8]; Eriochloa villosa, pre-emergence, 312 h, 250 g ai/ha, scale 0 to 100 (0 no effect, 100 complete control), visual, 12 to 14 days, read-out: Plant response rating, Cupgrass, Woolly
  pest or weed control at 250 g/ha: 75%
[8]; [14]
  Cupgrass, Woolly plant response rating: 75
[9]; [15]
  pest or weed control at 500 g/ha: 90%
  pest or weed control at 2000 g/ha: 95%
[9]; pre-emergence, Preemergence, visual rating, 0 to 100 scale (0 no effect, 100 complete control), read-out: Velvetleaf plant response rating
  pest or weed control at 500 g/ha: 100%
[9]; pre-emergence, Preemergence, 0 to 100 scale, 0 no effect, 100 complete control, read-out: Velvetleaf plant response rating
  pest or weed control at 2000 g/ha: 100%
[10]; 62 g ai/ha, scale 0 to 100 (0 no effect, 100 complete control), read-out: Rice plant response rating
  plant injury at 62 g/ha: 40%
[10]; 125 g ai/ha, scale of 0 to 100, 0 is no effect, 100 is complete control, read-out: Rice plant response rating
  plant injury at 125 g/ha: 80%
[10]; 250 g ai/ha, visual rating after 12 to 14 days, scale 0 to 100 (0 no effect, 100 complete control), read-out: Plant response rating, Rice
  plant injury at 250 g/ha: 80%
[10]; 500 g ai/ha, visual rating after 12 to 14 days, scale 0 to 100 (0 no effect, 100 complete control), read-out: Plant response rating, Rice
  plant injury at 500 g/ha: 90%
[11]; [16]
  pest or weed control at 500 g/ha: 80%
  pest or weed control at 2000 g/ha: 90%
[11]; pre-emergence, Preemergence, visual rating, 0 to 100 scale (0 no effect, 100 complete control), read-out: Crabgrass, Large plant response rating
  pest or weed control at 500 g/ha: 100%
[11]; pre-emergence, Preemergence, 0 to 100 scale, 0 no effect, 100 complete control, read-out: Crabgrass, Large plant response rating
  pest or weed control at 2000 g/ha: 100%
[12]; [17]
  pest or weed control at 500 g/ha: 80%
  pest or weed control at 2000 g/ha: 90%
[12]; pre-emergence, Preemergence, visual rating, 0 to 100 scale (0 no effect, 100 complete control), read-out: Barnyardgrass plant response rating
  pest or weed control at 500 g/ha: 100%
[12]; pre-emergence, Preemergence, 0 to 100 scale, 0 no effect, 100 complete control, read-out: Barnyardgrass plant response rating
  pest or weed control at 2000 g/ha: 100%
